Experimental data from US8551937B2, “Peptide having an extending action for half-life of object peptide in plasma” (priority 2008, dated 2013).
Where a SMILES comes first, the peptide text is derived from it.

Assay: Motilin immunoreactivity concentration in plasma, half-life after intravenous administration (Example 6)
Type: in vivo, rat
Settings: for half-life: SD, rat, plasma, 10 nmol/kg, male rats, N = 3, read-out: T½ Mean Value
Protocol: The experiment was carried out using rats into which polyethylene tube (PE-50 manufactured by Clay Adams) was previously inserted into thigh artery under an anesthetized condition with Nembutal. As to a test system, male SD strain rats (Nippon Charles River) of 7 weeks age were used where one group comprised 3 rats. Human type motilin or a derivative thereof in a dose of 10 nmol/kg was administered into tail vein of the rat and the blood before the administration and until 60 minutes after the administration was collected by a polyethylene tube inserted into the thigh artery. To the collected blood were added EDTA (manufactured by Dojin Laboratories) and aprotinin (manufactured by Bayer) as a stabilizer and an anti-coagulant, respectively and the plasma was separated therefrom by centrifugal separation.

half-life | disappearance half-time extending action in vivo compared with native motilin (rats) | SMILES
11.7 min | – | CC[C@H](C)[C@H](NC(=O)[C@@H]1CCCN1C(=O)[C@@H](NC(=O)[C@@H](N)Cc1ccccc1)C(C)C)C(=O)N[C@@H](Cc1ccccc1)C(=O)N[C@H](C(=O)N[C@@H](Cc1ccc(O)cc1)C(=O)NCC(=O)N[C@@H](CCC(=O)O)C(=O)N[C@@H](CC(C)C)C(=O)N[C@@H](CCC(N)=O)C(=O)N[C@@H](CCCNC(=N)N)C(=O)N[C@@H](CO)C(=O)N1CCC[C@H]1C(=O)N[C@@H](CCC(=O)O)C(=O)N[C@@H](Cc1c[nH]cn1)C(=O)N[C@@H](CCC(N)=O)C(=O)N[C@@H](CCCNC(=N)N)C(=O)N[C@H](C(=O)N[C@@H](CCC(N)=O)C(=O)N[C@@H](CCC(N)=O)C(=O)N[C@@H](CCCNC(=N)N)C(=O)N[C@@H](CCCCN)C(=O)N[C@@H](CCC(=O)O)C(=O)N[C@@H](CO)C(=O)N[C@@H](CCCCN)C(=O)N[C@@H](CCCCN)C(=O)N1CCC[C@H]1C(=O)N1CCC[C@H]1C(=O)N[C@@H](C)C(=O)N[C@@H](CCCCN)C(=O)N[C@@H](CC(C)C)C(=O)N[C@@H](CCC(N)=O)C(=O)N1CCC[C@H]1C(=O)N[C@@H](CCCNC(=N)N)C(=O)O)C(C)C)[C@@H](C)O [Chimeric motilin (A)] (H-FVPIFTYGELQRSPEHQRVQQRKESKKPPAKLQPR-OH; N-terminus and C-terminus assumed)
11.1 min | – | CC[C@H](C)[C@H](NC(=O)[C@@H]1CCCN1C(=O)[C@@H](NC(=O)[C@@H](N)Cc1ccccc1)C(C)C)C(=O)N[C@@H](Cc1ccccc1)C(=O)N[C@H](C(=O)N[C@@H](Cc1ccc(O)cc1)C(=O)NCC(=O)N[C@@H](CCC(=O)O)C(=O)N[C@@H](CC(C)C)C(=O)N[C@@H](CCC(N)=O)C(=O)N[C@@H](CCCNC(=N)N)C(=O)N[C@@H](CCC(=O)O)C(=O)N[C@@H](Cc1c[nH]cn1)C(=O)N[C@@H](CCC(N)=O)C(=O)N[C@@H](CCCNC(=N)N)C(=O)N[C@H](C(=O)N[C@@H](CCC(N)=O)C(=O)N[C@@H](CCC(N)=O)C(=O)N[C@@H](CCCNC(=N)N)C(=O)N[C@@H](CCCCN)C(=O)N[C@@H](CCC(=O)O)C(=O)N[C@@H](CO)C(=O)N[C@@H](CCCCN)C(=O)N[C@@H](CCCCN)C(=O)N1CCC[C@H]1C(=O)N1CCC[C@H]1C(=O)N[C@@H](C)C(=O)N[C@@H](CCCCN)C(=O)N[C@@H](CC(C)C)C(=O)N[C@@H](CCC(N)=O)C(=O)N1CCC[C@H]1C(=O)N[C@@H](CCCNC(=N)N)C(=O)O)C(C)C)[C@@H](C)O [Chimeric motilin (B)] (H-FVPIFTYGELQREHQRVQQRKESKKPPAKLQPR-OH; N-terminus and C-terminus assumed)
8.9 min | – | CC[C@H](C)[C@H](NC(=O)[C@@H]1CCCN1C(=O)[C@@H](NC(=O)[C@@H](N)Cc1ccccc1)C(C)C)C(=O)N[C@@H](Cc1ccccc1)C(=O)N[C@H](C(=O)N[C@@H](Cc1ccc(O)cc1)C(=O)NCC(=O)N[C@@H](CCC(=O)O)C(=O)N[C@@H](CC(C)C)C(=O)N[C@@H](CCC(N)=O)C(=O)N[C@@H](CCCNC(=N)N)C(=O)N[C@@H](CCC(N)=O)C(=O)N[C@@H](CCCNC(=N)N)C(=O)N[C@H](C(=O)N[C@@H](CCC(N)=O)C(=O)N[C@@H](CCC(N)=O)C(=O)N[C@@H](CCCNC(=N)N)C(=O)N[C@@H](CCCCN)C(=O)N[C@@H](CCC(=O)O)C(=O)N[C@@H](CO)C(=O)N[C@@H](CCCCN)C(=O)N[C@@H](CCCCN)C(=O)N1CCC[C@H]1C(=O)N1CCC[C@H]1C(=O)N[C@@H](C)C(=O)N[C@@H](CCCCN)C(=O)N[C@@H](CC(C)C)C(=O)N[C@@H](CCC(N)=O)C(=O)N1CCC[C@H]1C(=O)N[C@@H](CCCNC(=N)N)C(=O)O)C(C)C)[C@@H](C)O [Chimeric motilin (C)] (H-FVPIFTYGELQRQRVQQRKESKKPPAKLQPR-OH; N-terminus and C-terminus assumed)
8.03 min | – | CC[C@H](C)[C@H](NC(=O)[C@@H]1CCCN1C(=O)[C@@H](NC(=O)[C@@H](N)Cc1ccccc1)C(C)C)C(=O)N[C@@H](Cc1ccccc1)C(=O)N[C@H](C(=O)N[C@@H](Cc1ccc(O)cc1)C(=O)NCC(=O)N[C@@H](CCC(=O)O)C(=O)N[C@@H](CC(C)C)C(=O)N[C@@H](CCC(N)=O)C(=O)N[C@@H](CCCNC(=N)N)C(=O)N[C@@H](CCC(N)=O)C(=O)N[C@@H](CCCNC(=N)N)C(=O)N[C@@H](CCCCN)C(=O)N[C@@H](CCC(=O)O)C(=O)N[C@@H](CO)C(=O)N[C@@H](CCCCN)C(=O)N[C@@H](CCCCN)C(=O)N1CCC[C@H]1C(=O)N1CCC[C@H]1C(=O)N[C@@H](C)C(=O)N[C@@H](CCCCN)C(=O)N[C@@H](CC(C)C)C(=O)N[C@@H](CCC(N)=O)C(=O)N1CCC[C@H]1C(=O)N[C@@H](CCCNC(=N)N)C(=O)O)[C@@H](C)O [Chimeric motilin (E)] (H-FVPIFTYGELQRQRKESKKPPAKLQPR-OH; N-terminus and C-terminus assumed)
9.37 min | – | CC[C@H](C)[C@H](NC(=O)[C@@H]1CCCN1C(=O)[C@@H](NC(=O)[C@@H](N)Cc1ccccc1)C(C)C)C(=O)N[C@@H](Cc1ccccc1)C(=O)N[C@H](C(=O)N[C@@H](Cc1ccc(O)cc1)C(=O)NCC(=O)N[C@@H](CCC(=O)O)C(=O)N[C@@H](CC(C)C)C(=O)N[C@@H](CCC(N)=O)C(=O)N[C@@H](CCCNC(=N)N)C(=O)N[C@@H](CCCCN)C(=O)N[C@@H](CCC(=O)O)C(=O)N[C@@H](CO)C(=O)N[C@@H](CCCCN)C(=O)N[C@@H](CCCCN)C(=O)N1CCC[C@H]1C(=O)N1CCC[C@H]1C(=O)N[C@@H](C)C(=O)N[C@@H](CCCCN)C(=O)N[C@@H](CC(C)C)C(=O)N[C@@H](CCC(N)=O)C(=O)N1CCC[C@H]1C(=O)N[C@@H](CCCNC(=N)N)C(=O)O)[C@@H](C)O [Chimeric motilin (F)] (H-FVPIFTYGELQRKESKKPPAKLQPR-OH; N-terminus and C-terminus assumed)
5.25 min | unable to be confirmed | CC[C@H](C)[C@H](NC(=O)[C@@H]1CCCN1C(=O)[C@@H](NC(=O)[C@@H](N)Cc1ccccc1)C(C)C)C(=O)N[C@@H](Cc1ccccc1)C(=O)N[C@H](C(=O)N[C@@H](Cc1ccc(O)cc1)C(=O)NCC(=O)N[C@@H](CCC(=O)O)C(=O)N[C@@H](CC(C)C)C(=O)N[C@@H](CCC(N)=O)C(=O)N[C@@H](CCCNC(=N)N)C(=O)N[C@@H](CO)C(=O)N[C@@H](CCCCN)C(=O)N[C@@H](CCCCN)C(=O)N1CCC[C@H]1C(=O)N1CCC[C@H]1C(=O)N[C@@H](C)C(=O)N[C@@H](CCCCN)C(=O)N[C@@H](CC(C)C)C(=O)N[C@@H](CCC(N)=O)C(=O)N1CCC[C@H]1C(=O)N[C@@H](CCCNC(=N)N)C(=O)O)[C@@H](C)O [Chimeric motilin (G)] (H-FVPIFTYGELQRSKKPPAKLQPR-OH; N-terminus and C-terminus assumed)
10.4 min | – | CC[C@H](C)[C@H](NC(=O)[C@@H]1CCCN1C(=O)[C@@H](NC(=O)[C@@H](N)Cc1ccccc1)C(C)C)C(=O)N[C@@H](Cc1ccccc1)C(=O)N[C@H](C(=O)N[C@@H](Cc1ccc(O)cc1)C(=O)NCC(=O)N[C@@H](CCC(=O)O)C(=O)N[C@@H](CC(C)C)C(=O)N[C@@H](CCC(N)=O)C(=O)N[C@@H](CCCNC(=N)N)C(=O)N[C@H](C(=O)N[C@@H](CCC(N)=O)C(=O)N[C@@H](CCC(N)=O)C(=O)N[C@@H](CCCNC(=N)N)C(=O)N[C@@H](CCCCN)C(=O)N[C@@H](CCC(=O)O)C(=O)N[C@@H](CO)C(=O)N[C@@H](CCCCN)C(=O)N[C@@H](CCCCN)C(=O)N1CCC[C@H]1C(=O)N1CCC[C@H]1C(=O)N[C@@H](C)C(=O)N[C@@H](CCCCN)C(=O)N[C@@H](CC(C)C)C(=O)N[C@@H](CCC(N)=O)C(=O)O)C(C)C)[C@@H](C)O [Chimeric motilin (H)] (H-FVPIFTYGELQRVQQRKESKKPPAKLQ-OH; N-terminus and C-terminus assumed)
